The values below come from patent US20220395490A1, “TREATMENT OF ARTHRITIS” (Inflazome Limited, priority 2019, published 2022).

Series [1] concerns MSU-induced knee inflammation (gout) in male Wistar rats. In words: Prophylactic efficacy in rodent model of MSU-induced knee inflammation (gout). Type of series: in vivo. To be noted: for effect on pain associated with MSU-induced knee edema (mechanical allodynia, von Frey) / inhibition of the MSU-stimulated knee edema: 10 mg/kg once daily oral. The procedure: To determine the oral anti-inflammatory and anti-nociceptive efficacy of prophylactic treatment with the compound of formula (I) in a rodent model MSU-induced knee inflammation (gout) in male Wistar rats.
A. Preparation of MSU crystals: • 1. 4 g uric acid was dissolved in 800 ml 0.03 N NaOH and heated to 60° C. NaOH was added as required to maintain pH 8.9. The solution was stored overnight at 4-8° C. • 2. Crystals were filtered, washed and dried. • 3. Crystals were suspended in sterile saline just prior to use.
B. Efficacy Study: • 1. […] DAY −1. Baseline readings were taken
Baseline knee diameters were measured by digital caliper.
Baseline responses to mechanical allodynia, as measured by von Frey fibres, were recorded. • 3. DAY 0:
a. The rats were weighed and dosed by oral gavage with vehicle, prednisolone (10 mg/kg) or the compound of formula (I) (1, 3 or 10 mg/kg)
b. One hour after dosing, rats in Groups 1-5 were anesthetized and injected IA into the left knee with 2 mg MSU in 50 μl saline. • 4. DAY 1:
a. Rats were weighed and dosed as on DAY 0.
b. One hour after dosing, mechanical allodynia and knee diameters were measured and recorded. • 5. DAY 2:
b. One hour after dosing, mechanical allodynia and knee diameters were measured and recorded.
c. Four hours after final dosing, terminal bleeds were collected.

Series [2] shares this test system. It is filed as in vivo. The following applies: for left knee diameter on DAY 3: vehicle group 15.0 mm; for response to mechanical allodynia on DAY 3: vehicle group 5.8; for reduction in the MSU-induced edema and pain: daily. On the procedure:
To determine the oral anti-inflammatory and anti-nociceptive efficacy of therapeutic treatment with the compound of formula (I) in a rodent model MSU-induced knee inflammation (gout) in male Wistar rats.
300 mg MSU crystal were suspended in 7.5 ml PBS (Sigma, Cat. D8662, lot. RNBG0405, exp. April 2019) to prepare a 40 mg/ml suspension. Material was kept in a sonicating water bath to maintain homogeneous suspension between injections. The rats were weighed.
The rats were anesthetized (SOP 1810), knees were shaved, and injected into the left knee with 50 μl MSU (2 mg) crystals using a 25 G needle fitted to a 1 ml syringe.
Group 1=PBS (Sigma, Cat. D8662, lot RNBG0405, exp. […]). Dosed at 1 ml/kg, PO.
Group 3=37 mg of the compound of formula (I) was dissolved in 3.7 ml PBS to prepare a 10 mg/ml solution. Dosed at 1 ml/kg, PO.
Test materials were made fresh daily. All rats were weighed and dosed by intraperitoneal injection or orally. Mechanical allodynia responses and knee diameters were recorded one hour post dosing.
On DAY 3, four hours after dosing, the rats were anesthetized and exsanguinated into pre-chilled K2 EDTA vacutainer tubes (Becton Dickinson, Cat. 367844, lot 6253682, exp. Jan. 31, 2018). The blood was processed to plasma, gently mixed and centrifuged at 4° C. 1800g for 10 minutes not later than 20 minutes from blood collection, which was stored in two 90 μl minimum volume and four 20 μl aliquots were prepared in labeled eppendorf tubes, and immediately stored frozen at −80° C. The carcasses were disposed of appropriately.

The mark [3] stands for this setting: 1 mg/kg (Group 5) once daily oral, starting one hour prior to intra-articular 2 mg MSU.
[4] abbreviates: starting one hour prior to intra-articular 2 mg MSU.

Read-outs that look alike come from different tables or passages of the source.

Consider `CC(C)n1ccc(S(=O)(=O)NC(=O)Nc2c3c(cc4c2CCC4)CCC3)n1` [compound of formula (I)], for which, in series [1] (setting [3]), the “reduction of knee edema” value is 34% and the “reduction of pain response (mechanical allodynia)” value was 66%. Moreover, in series [1] (3 mg/kg (Group 4) once daily oral), the “efficacy of intermediate dose compared with high dose (10 mg/kg)” value is reported as “no significant difference”. Further, in series [1] (setting [4]), the “effect on pain associated with MSU-induced knee edema (mechanical allodynia, von Frey)” value was “complete blockade” and the “inhibition of the MSU-stimulated knee edema” value came to 49%. The “inhibition of the MSU-stimulated response across doses” value in series [1] (once daily oral 1, 3, 10 mg/kg) is recorded as “significant dose-dependent inhibition”. Further, the “effect on animal weight” value in series [1] (sodium salt in PBS, once daily oral, 1, 3 or 10 mg/kg) is on record as “no significant effect”. In addition, the “left knee diameter on DAY 3” value in series [2] (10 mg/kg PO once daily Day 1-3 after 2 mg MSU, baseline 12.3 mm) is 13.6 mm. In addition, the “response to mechanical allodynia on DAY 3” value in series [2] (10 mg/kg PO once daily Day 1-3 after 2 mg MSU, baseline 14.5) was 12.5 grams of pressure. Further, the “reduction in the MSU-induced edema and pain” value in series [2] (10 mg/kg orally) is reported as “significant reduction”.
For the compound `C[C@]12C=CC(=O)C=C1CC[C@@H]1[C@@H]2[C@@H](O)C[C@@]2(C)[C@H]1CC[C@]2(O)C(=O)CO` [prednisolone, reference compound], in series [1] (setting [4]), the “effect on pain associated with MSU-induced knee edema (mechanical allodynia, von Frey)” value is “significant insensitivity to pain” and the “inhibition of the MSU-stimulated knee edema” value is 52%. Moreover, the “effect on animal weight” value in series [1] (prednisolone 10 mg/kg once daily oral) is recorded as “no significant effect”.
For Anakinra, the “left knee diameter on DAY 3” value in series [2] (Anakinra 50 mg/kg IP once daily Day 1-3 after 2 mg MSU, baseline 12.4 mm) came to 14.0 mm. In series [2] (Anakinra 50 mg/kg IP once daily Day 1-3 after 2 mg MSU, baseline 13.9), the “response to mechanical allodynia on DAY 3” value is 9.0 grams of pressure. Also, the “reduction in the MSU-induced edema and pain” value in series [2] (Anakinra 50 mg/kg by peritoneal injection) is on record as “significant reduction”. For the same compound, in series [2] (rat, in vivo, ip), the “effect on animal health” value is recorded as “no effect”.
